Measurements reported in patent publication US8889638B2, “Stimulus-triggered prodrugs” (The Regents of the University of California, priority 2010, dated 2014).
Values belong to the compound of their own block, whether it stands above or below them.

What was measured:
[1] = target: T1, MMP-9 (catalytic domain, human, recombinant) (Homo sapiens, UniProt P14780); assay: MMP-9 inhibition assay of boronic ester proinhibitors (IC50; activation with H2O2); type: biochemical; settings: for inhibition of MMP-9 with no hydrogen peroxide present / inhibition at 10 µM: 10 μM; for inhibition at 10 µM: 1 h of activation, read-out: inhibition of MMP-9 after activation with 100 μM H2O2; for IC50: proinhibitors without H2O2, read-out: IC50 against MMP-9
T1 construct: MMP-9 (catalytic domain, human, recombinant); purchased BIOMOL International
Method: (§1) MMP-9 (catalytic domain, human, recombinant) and MMP-12 (catalytic domain, human, recombinant) were purchased from Enzo Life Sciences. The assays were carried out in 96-well plates using a Bio-Tek Flx 800 plate reader. IC50 values were obtained for proinhibitors B17 and B18 against MMP-9 and MMP-12. Serial dilutions of the compounds dissolved in DMSO were incubated at 37° C. for 30 minutes with 20 μL of the appropriate MMP (0.45 U/mL for MMP-9 and 0.35 U/mL for MMP-12) in MMP assay buffer (50 mM HEPES, 10 mM CaCl2, 0.10% Brij-35, pH 7.5), for a total volume of 99 pt. The reaction was initiated by the addition of 1 μL (400 μM) of the fluorescent substrate (Mca-Pro-Leu-Gly-Leu-Dpa-Ala-Arg-NH2 where Mca=(7-methoxycoumarin-4-yl)-acetyl and Dpa=N-3-(2,4-dinitrophenyl)-L-α-β-diaminopropionyl)) and kinetic activity was measured every minute for 20 min with excitation and emission wavelengths at 335 nm and 405 nm, respectively. Measurements were performed in duplicate. The percent inhibition was plotted versus the inhibitor concentration. A linear fit of the data for each experiment gives the IC50 value of the inhibitor where y=50%.
(§2) MMP activity in the presence of H2O2 was evaluated with both MMP-9 and MMP-12 with 1 h of activation at concentrations close to their IC50 values. Using the calculated rate constants for the protected ZBGs B19 and B20, it was determined that 1 h of activation time for each proinhibitor with 100 μM H2O2 will provide enough 1,2-HOPO-2 or PY-2 to inhibit the MMPs at 50%. For example, for proinhibitor B17 with MMP-9, if the rate=k[B17][H2O2] and k=3.9 M^−1s^−1, [B17]=10 μM, and [H2O2]=100 μM, the rate of conversion would be 3.9×10^−9 M/s. Therefore, activation for 1 h would release 14 μM 1,2-HOPO-2, or enough inhibitor to provide approximately 50% inhibition of MMP-9 (IC50 value for 1,2-HOPO-2 against MMP-9 is ˜6 μM).
(§3) In each well, 1 μL of proinhibitors B17 and B18 and the inhibitors 1,2-HOPO-2 and PY-2 in DMSO (1 mM for MMP-9 or 5 μM for MMP-12) were incubated for 1 h at 37° C. with 10 μL H2O2 (1 mM in HEPES buffer, pH 7.5) in MMP assay buffer for a total volume of 79 pt. […] After activation of the proinhibitors, 20 μL of the appropriate MMP (0.45 U/mL for MMP-9 and 0.35 U/mL for MMP-12) was added and incubated for an additional 30 min. The reaction was initiated by the addition of 1 pt (400 μM) of the fluorescent substrate and kinetic activity was measured every minute for 20 min with excitation and emission wavelengths at 335 nm and 405 nm, respectively. Enzyme activity with inhibitor was calculated with respect to the control experiment (no inhibitor present). Measurements were performed in duplicate in two independent experiments.

[2] = target: T2, MMP-12 (catalytic domain, human recombinant) (Homo sapiens, UniProt P39900); assay: MMP-12 inhibition assay of boronic ester proinhibitors (IC50; activation with H2O2); type: biochemical; set-up: MMP-12 (catalytic domain, human, recombinant); purchased Enzo Life Sciences; settings: for inhibition of MMP-12 with no hydrogen peroxide present / inhibition at 0.05 µM: 50 nM; for inhibition at 0.05 µM: 1 h of activation, read-out: inhibition of MMP-12 after activation with 100 μM H2O2; for IC50 against MMP-12: proinhibitors without H2O2
Method: as §1, §2, §3

[3] = Cleavage of sulfonate ester PZBGs and proMMPi by H2O2 (UV-Vis, rate constant, HPLC); type: physicochemical; settings: 50 μM in HEPES buffer, room temperature
Method: (§4) Absorption spectra of compounds were taken on a Perkin-Elmer Lambda 25 UV-Visible Spectrophotometer. To a 1.0 mL solution at 0.05 mM concentration of each compound in HEPES buffer (50 mM, pH 7.5) was added H2O2 (10 μL, 0.09M in HEPES) and absorption spectra were monitored over time at room temperature. Hydrolytic stability was measured by monitoring each sample in HEPES buffer over a 24 hour time period.
The pseudo-first order rate constant was calculated following literature procedure. To a 1.0 mL solution of compounds PZBG-1a, PZBG-1b, PZBG-1e, PZBG-5a, and PZBG-5b in HEPES buffer at 50 μM was added H2O2 to final concentrations of 150 μM, 250 μM, 500 μM, 750 μM, and 900 μM. Spectra were monitored over 15-30 min at room temperature with at least 50 spectra recorded at every concentration. The change in absorption at 298 nm for PZBG-1a and PZBG-1b were monitored, while the change in absorption at 288 nm was recorded for PZBG-1e, and 310 nm for PZBG-5a and PZBG-5b. The rate constant (kobs) was found from the linear slope of ln [(A−AZBG)/(Ao−AZBG)] vs. time where AZBG is the absorbance of a 50 μM sample of the ZBG or full-length inhibitor and AO is the initial absorbance of PZBG-1a, PZBG-1b, PZBG-1e, PZBG-5a, and PZBG-5b. The rate of conversion was determined from the slope of the line of kobs vs. [H2O2].
Analytical HPLC was performed on a HP Series 1050 system equipped with a Vydac® C18 reverse phase column (218 TP, 250×4.6 mm, 5 μm). […] Starting with 95% A and 5% B, an […] gradient was run for 15 min to a final solvent mixture of 5% A and 95% B, which was held for 5 min before ramping back down to 95% A and 5% B in 2 min and holding for an additional 4 min. Compounds ZBG-1a and PZBG-1a were prepared in HEPES buffer (50 mM, pH 7.5) at a concentration of 1 mM and retention times were determined. To evaluate cleavage by H2O2, a 1 mM solution of PZBG-1a in HEPES buffer was reacted with a 20-fold excess of H2O2 before analyzing under identical HPLC conditions as before.

[4] = Hydrolytic stability of sulfonate esters in HEPES buffer; type: physicochemical
Method: as §4

[5] = target: T2, MMP-12 (catalytic domain, human recombinant); assay: MMP-12 fluorescence-based inhibition assay with and without H2O2 (sulfonate ester proMMPi); type: biochemical; set-up: MMP-12 (catalytic domain, human recombinant); purchased Enzo Life Sciences; settings: 50 nM; for inhibition at 0.05 µM: 30 min of incubation
Method: MMP-12 (catalytic domain, human recombinant) was purchased from Enzo Life Sciences. The assays were carried out in a 96-well plate using a Bio-Tex Flx 800 plate reader. The activity of MMP-12 was evaluated after a 30 min incubation in the presence of H2O2 and proMMPi. The concentration of proMMPi used was selected to be close to the IC50 value of the parent full-length inhibitors, 1,2-HOPO-2 and PY-2[38]. In each well, 1 μL of proinhibitors PZBG-5a, PZGB-5b, and PZBG-6a and the inhibitors 1,2-HOPO-2 and PY-2 in DMSO (5 μM) were incubated for 30 min at 37° C. with 20 μL of MMP-12 (0.35 U/mL), 10 μL H2O2 (1 mM in HEPES buffer, pH 7.5), and MMP assay buffer (50 mM HEPES, 10 mM CaCl2, 0.10% Brij-35, pH 7.5) for a total volume of 99 μL. […] The reaction was initiated by the addition of 1 μL (400 μM) of the fluorescent substrate (Mca-Pro-Leu-Gly-Leu-Dpa-Ala-Arg-NH2 where Mca=(7-methoxycoumarin-4-yl)-acetyl and Dpa=N-3-(2,4-dinitrophenyl)-L-α-β-diaminopropionyl)) after the 30 minute incubation period and kinetic activity was measured every minute for 20 minutes with excitation and emission wavelengths at 335 nm and 405 nm, respectively. Enzyme activity with inhibitor was calculated with respect to the control experiment—no inhibitor present. Measurements were performed in duplicate in two independent experiments.

[6] = read-out: inhibition of MMP-12 after treatment with 100 μM H2O2
[7] = read-out: inhibition of MMP-12 before treatment with H2O2

T2 sequence (P39900 106-263 limits assumed): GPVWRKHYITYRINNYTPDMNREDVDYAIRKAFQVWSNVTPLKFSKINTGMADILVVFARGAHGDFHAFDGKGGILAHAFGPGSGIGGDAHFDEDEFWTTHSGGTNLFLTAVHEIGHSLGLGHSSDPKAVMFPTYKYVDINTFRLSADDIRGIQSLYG
T1 sequence (P14780 107-444 limits assumed): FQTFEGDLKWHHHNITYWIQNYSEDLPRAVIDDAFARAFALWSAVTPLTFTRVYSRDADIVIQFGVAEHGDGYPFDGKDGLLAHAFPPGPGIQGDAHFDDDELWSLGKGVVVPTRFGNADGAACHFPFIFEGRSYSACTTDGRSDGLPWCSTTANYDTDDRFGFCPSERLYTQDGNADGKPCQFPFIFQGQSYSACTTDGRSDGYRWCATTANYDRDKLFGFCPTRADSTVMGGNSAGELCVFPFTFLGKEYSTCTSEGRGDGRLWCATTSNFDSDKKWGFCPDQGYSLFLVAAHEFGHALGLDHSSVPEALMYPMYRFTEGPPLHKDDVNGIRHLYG

- inhibition of MMP-9 with no hydrogen peroxide present [1]: little inhibition
- inhibition at 10 µM [1]: 50%
- IC50 [1]: > 1000 µM
- inhibition of MMP-12 with no hydrogen peroxide present [2]: little inhibition
- inhibition at 0.05 µM [2]: 50%
- IC50 against MMP-12 [2]: micromolar range
SMILES: CC1(C)OB(c2ccc(COn3c(C(=O)NCc4ccc(-c5ccccc5)cc4)cccc3=O)cc2)OC1(C)C [Compound B17, N-([1,1′-biphenyl]-4-ylmethyl)-6-oxo-1-((4-(4,4,5,5-tetramethyl-1,3,2-dioxaborolan-2-yl)benzyl)oxy)-1,6-dihydropyridine-2-carboxamide]

- inhibition of MMP-9 with no hydrogen peroxide present [1]: little inhibition
- inhibition at 10 µM [1]: 50%
- IC50 [1]: > 1000 µM
- inhibition of MMP-12 with no hydrogen peroxide present [2]: little inhibition
- inhibition at 0.05 µM [2]: 50%
- IC50 against MMP-12 [2]: micromolar range
SMILES: CC1(C)OB(c2ccc(COc3c(C(=O)NCc4ccc(-c5ccccc5)cc4)occc3=O)cc2)OC1(C)C [Compound B18, N-([1,1′-biphenyl]-4-ylmethyl)-4-oxo-3-((4-(4,4,5,5-tetramethyl-1,3,2-dioxaborolan-2-yl)benzyl)oxy)-4H-pyran-2-carboxamide]

- cleavage in buffer ([4]; in 6 h): ~50%
SMILES: O=c1ccccn1OS(=O)(=O)c1ccccc1 [PZBG-1a, 2-Oxopyridin-1(2H)-yl benzenesulfonate]
- pseudo-first order rate constant with an excess of H2O2 [3]: 0.7 M⁻¹ s⁻¹

- cleavage in buffer ([4]; in 24 h): ~30%
SMILES: Cc1ccc(S(=O)(=O)On2ccccc2=O)cc1 [PZBG-1b, 2-Oxopyridin-1(2H)-yl-4-methylbenzenesulfonate]
- pseudo-first order rate constant with an excess of H2O2 [3]: 0.3 M⁻¹ s⁻¹

- hydrolysis in buffer alone ([4]; after 9 h): ~50%
- inhibition at 0.05 µM [5, 6]: ~30%
- inhibition at 0.05 µM [5, 7]: ~20%
SMILES: O=C(NCc1ccc(-c2ccccc2)cc1)c1cccc(=O)n1OS(=O)(=O)c1ccccc1 [PZBG-5a, 6-(([1,1′-Biphenyl]-4-ylmethyl)carbamoyl)-2-Oxopyridin-1(2H)-yl benzenesulfonate]
- pseudo-first order rate constant with an excess of H2O2 (full-length proMMPi) [3]: 0.3 M⁻¹ s⁻¹

- hydrolysis in buffer alone ([4]; after 3 h): ~50%
- inhibition at 0.05 µM [5, 6]: ~50%
- inhibition at 0.05 µM [5, 7]: ~30%
SMILES: O=C(O)c1ccc(S(=O)(=O)On2c(C(=O)NCc3ccc(-c4ccccc4)cc3)cccc2=O)cc1 [PZBG-5b, 4-(((6-(([1,1′-Biphenyl]-4-ylmethyl)carbamoyl)-2-Oxopyridin-1(2H)yl)oxy)sulfonyl)benzoic acid]
- pseudo-first order rate constant with an excess of H2O2 (full-length proMMPi) [3]: 1.1 M⁻¹ s⁻¹

SMILES: O=C(NCc1ccc(-c2ccccc2)cc1)c1occc(=O)c1OS(=O)(=O)c1ccccc1 [PZBG-6a, 2-(([1,1′-Biphenyl]-4-ylmethyl)carbamoyl)-4-oxo-4H-pyran-3-yl benzenesulfonate]
- change in inhibitory activity against MMP-12 upon exposure to H2O2 ([5]; negative control): no significant change in inhibitory activity
